How the values were obtained:
JIMT1 xenograft tumors = test: JIMT1 xenograft tumor growth; format: in vivo, NSG mice; conditions: 25 mg/kg IP, 28 days
septin-9 = test: Confocal analysis of septin-9 filament structure; format: cell-based
HER2 = test: Immunoblot of HER2 expression, pancreatic and breast cancer cells; format: cell-based
BXPC-3 cells = test: Cell cycle analysis (PI, flow cytometry), BXPC-3; format: cell-based, human; conditions: BXPC-3, 100 nM
Method: For cell cycle analysis, BXPC-3 and PANC-1 and JIMT-1 cells (100,000/well) were seeded overnight in a 6 well dishes and allowed to adhere overnight. Media was replaced with fresh complete medium supplemented with DMSO or UR214-9 (100 nM and 3 μM) and cells were incubated for 72 hours. The media containing the drugs was removed and cells were washed twice with PBS and trypsinized gently. The cells were collected in 15 mL tubes, complete DMEM media was added to block trypsin and cells were centrifuged. The supernatants were removed and cells were gently treated with 70% cold-EtOH for 30 minutes. The fixed cells were centrifuged and the pellets obtained were collected in flow cytometry tubes and stained with preformulated PI/RNase solution (Cell Signaling Technology, catalog number: 4087s) for 30 minutes. The PI content was analyzed using a flow cytometer. Data was processed using Flowjo software.

[1] = system: human pancreatic cancer cells (BXPC-3 and PANC-1); test: MTS cell viability, pancreatic cancer cells; format: cell-based
Method: Cell Lines, Cell Culture, and Reagents. PANC-1, BXPC-3 and CAPAN-1, SKOV-3, MCF7, MDA-MD-231 cells were obtained from ATCC and maintained in DMEM, RPMI-1640 and IMDM supplemented with 10% fetal calf serum penicillin (100 units/mL), and streptomycin (100 μg/mL) at 37° C. with 5% CO2 in a humidified incubator. JIMT-1 cells were purchased from AddexBio Inc, USA (catalog number: C0006005) and maintained in 10% FBS and antibiotic supplemented DMEM. […] The reaction was monitored using thin-layer chromatography plates with DCM-MeOH or pure ethyl acetate as eluent. Spots were monitored in a UV chamber. […] ICM scores for each compound and their poses were calculated and compared with FCF. […] Cell viability of PANC-1, BXPC-3 and CAPAN-1 pancreatic cancer cells treated with UR214-9 was measured using the Cell Titre96R Aqueous One Solution Cell Proliferation Assay (Promega Corp., catalog number: G3580) following the procedure published earlier. […] The cells were analyzed by a 305 flow cytometer and relative live and dead cell population was calculated by inputting equal number of cells in both vehicle and control group.

O=C(Nc1cc(Cl)nc(Cl)c1)Nc1cccc(SC(F)(F)F)c1F [UR214-9]
xenograft tumor growth (tumor volume and weight) (JIMT1 xenograft tumors): significant growth control
septin-9 filament structures (septin-9; PANC-1 and JIMT-1 cells): clear disarrangement in septin-9 filament structures
septin-9 structure (septin-9; SKOV-3, 1 μM, 48 hours): reorganization of septin-9
HER2 expression (HER2; MDA-MB-231, JIMT-1 and MCF-7 cells, 10 and 30 μM, 24 hours): reduced HER2 expression
HER2 expression (HER2; PANC-1 (HER2+), 0.1, 1.0 and 10 μM, 72 hours): dose-dependent decrease in HER2 expression
cell cycle distribution (BXPC-3 cells): no change in cell cycle distribution
viability ([1]; BXPC-3 and PANC-1, 72 hours of treatment): reduced the viability
growth (MTS assay), dose dependently ([1]; BXPC-3 and PANC-1, by 48th hour of drug exposure): reduced the growth

From patent publication US12433876B2, “Septin inhibitors for treatment of cancers” (UNIVERSITY OF ROCHESTER, priority 2019, dated 2025)
